Reference: publication PMC12000094, “Development of a highly sensitive luciferase assay for intracellular evaluation of coronavirus Mpro activity” (Frontiers in Microbiology, 2025)
Read-outs that look alike come from different tables or passages of the source. Square brackets hold non-standard residues; d marks the D form. Peptide text beside a SMILES is read from it. Nle = CCCC[C@H](N)C(=O)O

Columns and labels:
[1] = tested on: HCoV-229E; test: microbe, parasite or virus in culture; assay type: cell-based, HCoV-229E (Huh-7 cells); settings: for antiviral potency against HCoV 229E in words: ICMP assay, Huh-7 cells; for IC50: read-out: IC50 (inhibition of luciferase expression, HCoV-229E infection)
[2] = tested on: HCoV-229E; test: RT-qPCR of viral RNA and Mpro gene in HCoV-229E-infected, drug-treated Huh-7 cells; assay type: cell-based, HCoV-229E (Huh-7 cells); settings: infected Huh-7 cells, 48 h post-infection
[3] = tested on: 229E coronavirus; design: method as in Boras et al., 2021; settings: cell-based assay; ref Boras et al., 2021; read-out: IC50 (anti-229E coronavirus activity, previous study); cited from earlier work
[4] = Human coronavirus 229E, Huh-7, 48 h

In the case of `CC(C)C[C@H](NC(=O)OCc1ccccc1)C(=O)N[C@@H](C[C@@H]1CCNC1=O)C(O)S(=O)(=O)[O-].[Na+]` (stereo partly drawn) [GC376], the “antiviral potency against HCoV 229E in words” value (shortened to “antiviral potency”) [1] is reported as “effectively suppresses the replication”.
In the case of `CC(C)(C)NC(=O)N[C@H](C(=O)N1C[C@H]2[C@@H]([C@H]1C(=O)NC(CC1CCC1)C(=O)C(N)=O)C2(C)C)C(C)(C)C` (stereo partly drawn) [Boceprevir], the IC50 [1, 4] is reported as greater than 50000 nM and the “antiviral potency” value [1] is reported as “very weak inhibitory potency”.
For `O=c1cc(-c2ccc(O)c(O)c2)oc2cc(O[C@@H]3O[C@H](CO)[C@@H](O)[C@H](O)[C@H]3O)cc(O)c12` [Cynaroside, luteolin 7-O-β-D-glucoside], the “antiviral potency” value [1] was “moderate inhibitory effects”, the “antiviral potency” value ([1]; listed as cynaroside) was “moderate antiviral activity” and the IC50 [1] was 21600 nM.
For `CCCC[C@@H](C=O)NC(=O)[C@H](CC(C)C)NC(=O)[C@H](CC(C)C)NC(C)=O` [MG-101] (Ac-Leu-Leu-[Nle]-aldehyde), the “antiviral potency” value [1] was “moderate cellular inhibition” and the IC50 [1] was 2800 nM.
In the case of `CC(C)(C)[C@H](NC(=O)C(F)(F)F)C(=O)N1C[C@H]2[C@@H]([C@H]1C(=O)N[C@H](C#N)C[C@@H]1CCNC1=O)C2(C)C` [Nirmatrelvir], the IC50 [1, 4] is reported as 233 nM.
Compound `CC(C)C[C@H](NC(=O)OCc1ccccc1)C(=O)N[C@@H](CC1CCNC1=O)C(O)S(=O)(=O)O` (stereo partly drawn) [GC376] has an IC50 [1] of 345 nM.
In the case of `COc1cccc2[nH]c(C(=O)N[C@@H](CC(C)C)C(=O)N[C@@H](C[C@@H]3CCNC3=O)C(=O)COP(=O)(O)O)cc12` [Lufotrelvir], the IC50 [1, 4] is reported as 65 nM, the “intracellular 229E Mpro expression (RT-qPCR, normalized to GAPDH) versus drug concentration” value ([2]; increasing drug concentration) is reported as “decreased significantly” and the “HCoV 229E viral RNA levels (RT-qPCR, normalized to GAPDH) versus drug concentration” value ([2]; increasing drug concentrations) is reported as “negative correlation”. For the same compound, the IC50 [3] was 58 nM.
Work on `CC(C)(C)c1ccc(N(C(=O)c2cnc[nH]2)[C@@H](C(=O)NC2CCCCC2)c2cccnc2)cc1` [X77] yielded an IC50 [1] of 457 nM.
